Assay results taken from the supplement of paper PMC10307832.

Legend:
Assay in all cases: relative viability (nuclei count vs DMSO), 5 days (fraction); higher = more cells survive
NCI-H838 = test system: NCI-H838
Summary of the method: (§1)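 Values are medians from duplicate plates. Each reflects relative viability, defined as the nuclei count of treated wells over that of vehicle wells. Lung cancer cell lines in 1536-well plates were pin-tool dosed one day after seeding with one drug alone or with a fixed anchor-drug dose plus five library-drug doses (not always all listed) in √10 steps, then fixed, stained and imaged at 4× after 5 days.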

NCI-H1666 = test system: NCI-H1666
Summary of the method: as §1

HCC-44 = test system: HCC-44
Summary of the method: as §1

COR-L23 = test system: COR-L23
Summary of the method: as §1

NCI-H1792 = test system: NCI-H1792
Summary of the method: as §1

NCI-H1437 = test system: NCI-H1437
Summary of the method: as §1

NCI-H650 = test system: NCI-H650
Summary of the method: as §1

HCC-15 = test system: HCC-15
Summary of the method: as §1

BEN = test system: BEN
Summary of the method: as §1

A-427 = test system: A-427
Summary of the method: as §1

EKVX = test system: EKVX
Summary of the method: as §1

NCI-H23 = test system: NCI-H23
Summary of the method: as §1

SK-MES-1 = test system: SK-MES-1
Summary of the method: as §1

NCI-H441 = test system: NCI-H441
Summary of the method: as §1

HARA = test system: HARA
Summary of the method: as §1

HCC-827 = test system: HCC-827
Summary of the method: as §1

NCI-H596 = test system: NCI-H596
Summary of the method: as §1

NCI-H358 = test system: NCI-H358
Summary of the method: as §1

NCI-H1650 = test system: NCI-H1650
Summary of the method: as §1

NCI-H1975 = test system: NCI-H1975
Summary of the method: as §1

201T = test system: 201T
Summary of the method: as §1

## CCN(CC)CCCCNc1ncc2cc(-c3cc(OC)cc(OC)c3)c(NC(=O)NC(C)(C)C)nc2n1 + C[C@@H](Oc1cc(-c2cnn(C3CCNCC3)c2)cnc1N)c1c(Cl)ccc(F)c1Cl [Crizotinib] (partner 1 µM)
NCI-H838; first compound 0.01 µM
  relative viability: 0.919
NCI-H838; first compound 0.03162 µM
  relative viability: 0.84
NCI-H838; first compound 0.1 µM
  relative viability: 0.955
NCI-H838; first compound 0.3162 µM
  relative viability: 0.79
NCI-H838; first compound 1 µM
  relative viability: 0.552
NCI-H1666; first compound 0.01 µM
  relative viability: 1.17
NCI-H1666; first compound 0.03162 µM
  relative viability: 0.985
NCI-H1666; first compound 0.1 µM
  relative viability: 0.895
NCI-H1666; first compound 0.3162 µM
  relative viability: 1.02
NCI-H1666; first compound 1 µM
  relative viability: 1.09
HCC-44; first compound 0.01 µM
  relative viability: 0.775
HCC-44; first compound 0.03162 µM
  relative viability: 0.855
HCC-44; first compound 0.1 µM
  relative viability: 0.853
HCC-44; first compound 0.3162 µM
  relative viability: 0.971
HCC-44; first compound 1 µM
  relative viability: 0.946
COR-L23; first compound 0.01 µM
  relative viability: 0.697
COR-L23; first compound 0.03162 µM
  relative viability: 0.656
COR-L23; first compound 0.1 µM
  relative viability: 0.824
COR-L23; first compound 0.3162 µM
  relative viability: 0.584
COR-L23; first compound 1 µM
  relative viability: 0.759
NCI-H1792; first compound 0.01 µM
  relative viability: 1.07
NCI-H1792; first compound 0.03162 µM
  relative viability: 1.02
NCI-H1792; first compound 0.1 µM
  relative viability: 1.33
NCI-H1792; first compound 0.3162 µM
  relative viability: 1.41
NCI-H1792; first compound 1 µM
  relative viability: 0.541
NCI-H1437; first compound 0.01 µM
  relative viability: 1.12
NCI-H1437; first compound 0.03162 µM
  relative viability: 0.993
NCI-H1437; first compound 0.1 µM
  relative viability: 0.987
NCI-H1437; first compound 0.3162 µM
  relative viability: 1.16
NCI-H1437; first compound 1 µM
  relative viability: 0.756
NCI-H650; first compound 0.01 µM
  relative viability: 0.694
NCI-H650; first compound 0.03162 µM
  relative viability: 0.618
NCI-H650; first compound 0.1 µM
  relative viability: 0.863
NCI-H650; first compound 0.3162 µM
  relative viability: 0.743
NCI-H650; first compound 1 µM
  relative viability: 0.606
HCC-15; first compound 0.01 µM
  relative viability: 0.919
HCC-15; first compound 0.03162 µM
  relative viability: 0.853
HCC-15; first compound 0.1 µM
  relative viability: 0.871
HCC-15; first compound 0.3162 µM
  relative viability: 1.25
HCC-15; first compound 1 µM
  relative viability: 0.699
BEN; first compound 0.01 µM
  relative viability: 1.05
BEN; first compound 0.03162 µM
  relative viability: 0.85
BEN; first compound 0.1 µM
  relative viability: 0.867
BEN; first compound 0.3162 µM
  relative viability: 0.835
BEN; first compound 1 µM
  relative viability: 0.699
A-427; first compound 0.01 µM
  relative viability: 0.886
A-427; first compound 0.03162 µM
  relative viability: 0.812
A-427; first compound 0.1 µM
  relative viability: 0.875
A-427; first compound 0.3162 µM
  relative viability: 0.909
A-427; first compound 1 µM
  relative viability: 0.727
EKVX; first compound 0.01 µM
  relative viability: 1.21
EKVX; first compound 0.03162 µM
  relative viability: 0.924
EKVX; first compound 0.1 µM
  relative viability: 1.04
EKVX; first compound 0.3162 µM
  relative viability: 0.841
EKVX; first compound 1 µM
  relative viability: 0.664
NCI-H23; first compound 0.01 µM
  relative viability: 0.537
NCI-H23; first compound 0.03162 µM
  relative viability: 0.568
NCI-H23; first compound 0.1 µM
  relative viability: 0.496
NCI-H23; first compound 0.3162 µM
  relative viability: 0.536
NCI-H23; first compound 1 µM
  relative viability: 0.511
SK-MES-1; first compound 0.01 µM
  relative viability: 1.06
SK-MES-1; first compound 0.03162 µM
  relative viability: 1.05
SK-MES-1; first compound 0.1 µM
  relative viability: 1.14
SK-MES-1; first compound 0.3162 µM
  relative viability: 1.03
SK-MES-1; first compound 1 µM
  relative viability: 1.01
NCI-H441; first compound 0.01 µM
  relative viability: 0.676
NCI-H441; first compound 0.03162 µM
  relative viability: 0.897
NCI-H441; first compound 0.1 µM
  relative viability: 0.73
NCI-H441; first compound 0.3162 µM
  relative viability: 0.886
NCI-H441; first compound 1 µM
  relative viability: 0.762
HARA; first compound 0.01 µM
  relative viability: 1.19
HARA; first compound 0.03162 µM
  relative viability: 1.03
HARA; first compound 0.1 µM
  relative viability: 1.26
HARA; first compound 0.3162 µM
  relative viability: 1.17
HARA; first compound 1 µM
  relative viability: 0.816
HCC-827; first compound 0.01 µM
  relative viability: 0.979
HCC-827; first compound 0.03162 µM
  relative viability: 0.958
HCC-827; first compound 0.1 µM
  relative viability: 0.968
HCC-827; first compound 0.3162 µM
  relative viability: 0.966
HCC-827; first compound 1 µM
  relative viability: 0.937
NCI-H596; first compound 0.01 µM
  relative viability: 0.918
NCI-H596; first compound 0.03162 µM
  relative viability: 1.04
NCI-H596; first compound 0.1 µM
  relative viability: 1.02
NCI-H596; first compound 0.3162 µM
  relative viability: 0.956
NCI-H596; first compound 1 µM
  relative viability: 0.894
NCI-H358; first compound 0.01 µM
  relative viability: 0.639
NCI-H358; first compound 0.03162 µM
  relative viability: 0.54
NCI-H358; first compound 0.1 µM
  relative viability: 0.728
NCI-H358; first compound 0.3162 µM
  relative viability: 0.671
NCI-H358; first compound 1 µM
  relative viability: 0.469
NCI-H1650; first compound 0.01 µM
  relative viability: 1.03
NCI-H1650; first compound 0.03162 µM
  relative viability: 0.989
NCI-H1650; first compound 0.1 µM
  relative viability: 0.902
NCI-H1650; first compound 0.3162 µM
  relative viability: 1.02
NCI-H1650; first compound 1 µM
  relative viability: 0.698
NCI-H1975; first compound 0.01 µM
  relative viability: 1.35
NCI-H1975; first compound 0.03162 µM
  relative viability: 1.02
NCI-H1975; first compound 0.1 µM
  relative viability: 1.05
NCI-H1975; first compound 0.3162 µM
  relative viability: 0.94
NCI-H1975; first compound 1 µM
  relative viability: 0.82
201T; first compound 0.01 µM
  relative viability: 1.06
201T; first compound 0.03162 µM
  relative viability: 1.09
201T; first compound 0.1 µM
  relative viability: 1.06
201T; first compound 0.3162 µM
  relative viability: 1.05
201T; first compound 1 µM
  relative viability: 1.03
